Read-outs that look alike come from different tables or passages of the source.

The values that follow come from patent publication US20230172920A1, “DOSING REGIMEN FOR TREATING A DISEASE MODULATED BY CSF-1R” (Novartis AG, priority 2020, published 2023).

Data set [1] can be described thus: Blood and brain exposure in mice (RD-2019-00100). It is filed as in vivo. The following applies: for Kp at 5 days: read-out: ratio of brain to blood exposures. As for the experimental part:
Several studies were performed to understand PK/PD relationships for CNS microglia clearance in mice. In the first study (RD-2019-00100) mice were treated once daily (qd) for between 1 and 5 consecutive days with a dose of 169 mg/kg BLZ945. Additionally, two dose groups received 169 mg/kg BLZ945 for 5 consecutive days followed by either 3 or 7 days of drug withdrawal (washout). […] Pharmacokinetic analysis was performed on blood and brain samples taken from each group at 3 hours after the final dose on the indicated necropsy day. […] Exposures dropped by more than 1000-fold following the washout period (FIG. 8 B).
FIG. 8: (A) Microglial depletion in the cortex, as assessed by Iba1/Aif-1 immunohistological staining at necropsy. Sections were analyzed for total number of microglia cell bodies per sample area. Values are group means±SD (n=3). (B) Exposure of BLZ945 in blood and brain 3 hours after the last dose on the day of necropsy. Values are group means (n=3).
In a follow-up study (RD-2019-00100), mice were treated with BLZ945 for 5 consecutive days with a range of doses from 7 to 169 mg/kg. The two lowest doses of 7 mg/kg and 20 mg/kg were ineffective for microglial depletion. […] Here the ratio of brain to blood exposures was approximately 30% at the four lowest doses and approximately 55% at the highest dose (FIG. 9 B).
FIG. 9: Dose-dependent reduction of microglia. (A) Mice were treated for 5 consecutive days with BLZ945 at the indicated doses. Samples were analyzed histologically by Iba1/Aif-1 staining and quantified for total microglia cell bodies per sample area. Data are group means±SD (n=3). (B) Exposure of BLZ945 in blood and brain following 5 consecutive days of dosing at multiple doses. Values are group means±SD (n=3).

A further data set deals with CSF-1R. Description: Mouse CSF-1 levels in plasma as biomarker for CSF-1R inhibition (MC38 model). To be noted: BLZ945 4 days on/3 days off, vs vehicle. It is filed as in vivo. As for the experimental part:
In order to measure increase of CSF1 in the plasma as a biomarker for CSF-1R inhibition blood sampling was performed at baseline and 6 hours later on indicated days (FIG. 4).
Mouse CSF-1 levels in plasma. A. Changes in CSF-1 levels over time in the different treatment groups. B. Statistical analysis of CSF-1 levels in vehicle vs. BLZ945 4 days on/3 days off and in vehicle vs. BLZ945 4 days on/3 days off in combination with anti-PD-1. Statistical significance was calculated using a two-tailed, unpaired, non-parametric Mann-Whitney Test was performed to compare treatment to control groups.

Data set [2] can be described thus: AST/ALT elevation across single agent dose groups (clinical data, CTCAE). It counts as in vivo, human. As for the experimental part: A comparison of AST and ALT elevation across single agent dose groups for the compound of Formula (I) was performed for the once per week (Q1WV) dosing regimen and the 4 days on/10 days off dosing regimen over a range of dosages. FIGS. 6 and 7 show the AST and ALT elevations, respectively. The Common Terminology Criteria for Adverse Events (CTCAE) was used to evaluate AST and ALT levels.

The test system of data set [3] is tumor associated macrophages (TAM) and Tregs. Description: Tumor infiltrating macrophages and Tregs by flow cytometry (MC38 model). It is filed as in vivo, mouse. The following applies: BLZ945 4 days on/3 days off, single agent and with anti-PD-1. As for the experimental part: In order to access the dynamics of the tumor associated immune cells a repeat study using only the 4 days on/3 days off schedule as a single agent and in combination with anti-PD-1 was performed.
FIG. 5 Analysis of tumor infiltrating macrophages (FIG. 5A) and Tregs (FIG. 5B) upon treatment with BLZ945 in a 4 days on/3 days off schedule on day 10 (A) and day 14 (B) and in combination with anti-PD-1 by flow cytometry. Statistical significance was calculated using a two-tailed, unpaired, non-parametric Mann-Whitney Test was performed to compare treatment to control groups.

A further data set concerns SOD1G93A ALS mouse. Description: Body weight, grip strength and CMAP in the SOD1G93A ALS mouse, 8-week study (RD-2019-00092). It is filed as in vivo. As for the experimental part: BLZ945 was dosed over an 8-week period in a mouse model of ALS (in house data). BLZ945 was tested for efficacy in preventing or delaying disease progression in the SOD1G93A ALS mouse (RD-2019-00092). […] Normal body weight gain is also impaired in this model. These physiological impairments are considered as mechanistic readouts given that they best recapitulate the clinical disease phenotype (Turner et al 2013). Animals were dosed from 8 to 16 weeks of age with daily (q.d) doses of BLZ945 at either 65 mg/kg, 170 mg/kg, or 170 mg/kg delivered intermittently with a 7 day ON/7 day OFF regimen.
FIG. 12: The effect of BLZ945 on body weight change over the eight-week study period. Data are presented as the percentage of body weight change relative to the first dosing day. Values are group means ([…]). Statistical analysis was by mixed linear effect model for repeated measures. * p<0.05; ** p<0.01; **** p<0.0001.
Hind limb grip strength and compound muscle action potentials (CMAP), an assessment of neuromuscular integrity, were measured as mechanistic readouts. In grip strength measurements, SOD1 G93A mice lost muscle force continuously after the 8th week of age. […] This was intermediate to the vehicle-treated SOD1 G93A and NCAR controls (FIG. 13 A). […] However, CMAPs were still lower than those of NCAR animals from study week 4 onward.
FIG. 13: (A) The effect of BLZ945 on grip strength over the eight-week study period. Values are group means±SD (n=12-15). Statistical analysis was by mixed linear effect model for repeated measures. * p<0.05; ** p<0.01; *** p<0.001. (B) The effect of BLZ945 on TA muscle CMAP over the eight-week study period. Values are group means±SD (n=12-15). Statistical analysis was by mixed linear effect model for repeated measures. * […]; ** p<0.01; *** p<0.001.

For `CNC(=O)c1cc(Oc2ccc3nc(N[C@@H]4CCCC[C@H]4O)sc3c2)ccn1` [BLZ945, 4-((2-(((1R,2R)-2-hydroxycyclohexyl)amino)benzo[d]thiazol-6-yl)oxy)-N-methylpicolinamide], in data set [1] (169 mg/kg qd 5 days, then 3 or 7 days washout), the “drop of exposures following washout” value was “more than 1000 fold”. Besides, the “accumulation with daily dosing (blood and brain exposures)” value in data set [1] (169 mg/kg qd, consecutive dosing days) was “lack of accumulation”. Moreover, the “dose dependence of blood and brain exposures” value in data set [1] (7 to 169 mg/kg, 5 consecutive days) is “linear increases in both blood and brain exposures with increased doses”. For the same compound, the Kp at 3 h in data set [1] (mouse, brain relative to blood, 169 mg/kg qd, 1-5 days, 3 hours after final dose) is about 0.5. For the same compound, the Kp at 5 days in data set [1] (mouse, brain relative to blood, four lowest doses (7-100 mg/kg), 5 consecutive days) is about 0.3; in data set [1] (mouse, brain relative to blood, highest dose (169 mg/kg), 5 consecutive days), about 0.55. Besides, in the data set on CSF-1R, the CSF-1 plasma levels result is “statistically significant increase”. Further, in data set [2] (4 days on/10 days off compared with Q1W dosing regimen, single agent), the “AST and ALT elevations” value is listed as “better controlled”. Further, in data set [2] (4 days on/10 days off schedule), the ALT/AST levels entry is reported as “recover to baseline before next dose”. The “AST and ALT levels” value in data set [2] (Q1W dose, even at lowest dose of 300 mg) is given as “spikes above the G2 level”. The TAM in tumor entry in data set [3] (after 10 and 14 days of treatment) is “significant decrease”. Moreover, the Tregs in tumor entry in data set [3] (day 10 after treatment start) is given as “transient decrease”. Moreover, the “tibialis anterior muscle CMAP” value in the data set with SOD1G93A ALS mouse (65 mg/kg) is recorded as “significantly higher CMAPs than untreated controls until week 6”; with SOD1G93A ALS mouse (170 mg/kg, continuous or intermittent dosing) it was “significantly reduced decline in CMAPs throughout the study period”. Further, the “body weight gain at end of study” value in the data set with SOD1G93A ALS mouse (65 mg/kg and 170 mg/kg 7 days on/7 days off groups, NCAR approx. 16%, vehicle approx. 7%) is “approximately 12%”. For the same compound, the “hind limb grip strength” value is recorded as “significantly higher grip strength” with SOD1G93A ALS mouse (65 mg/kg, vs vehicle-treated SOD1 G93A controls, up to week 6 of dosing) and “maintained significantly greater grip force throughout the study period” in the data set on SOD1G93A ALS mouse (170 mg/kg, continuously or intermittently, vs vehicle-treated SOD1 G93A). For the same compound, in the data set on SOD1G93A ALS mouse (170 mg/kg continuously, 8 weeks), the body weight gain entry is reported as “constant weight gain at the same rate as NCAR mice”.
